Results taken from PubChem BioAssay (NCI).
“And” between values parts separate entries of the source, which are not always exact repeats. Equal values may be shown once.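 Growth conditions: 96-well plates. Treatment: test compound, 48 hours, 5 concentrations. Analysis: linear interpolation between bracketing concentrations; unreached endpoints set to highest concentration. Here, GI50 denotes the concentration required for 50% inhibition of growth. TGI: concentration producing complete growth inhibition.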

What was measured:
Assay in all cases: growth of human tumour cells (NCI), 48 h
NCI-H522 lung = system: NCI-H522 lung
SW-620 colon = system: SW-620 colon
SF-268 CNS = system: SF-268 CNS
NCI-H23 lung = system: NCI-H23 lung
DU-145 prostate = system: DU-145 prostate
OVCAR-4 ovarian = system: OVCAR-4 ovarian
HT29 colon = system: HT29 colon
NCI-H226 lung = system: NCI-H226 lung
MCF7 breast = system: MCF7 breast
HOP-62 NSCLC = system: HOP-62 NSCLC

SMILES	TGI (NCI-H522 lung)	TGI (SW-620 colon)	TGI (SF-268 CNS)	TGI (NCI-H23 lung)	TGI (DU-145 prostate)	TGI (OVCAR-4 ovarian)	TGI (HT29 colon)	TGI (NCI-H226 lung)	TGI (MCF7 breast)	TGI (HOP-62 NSCLC)	GI50 (NCI-H522 lung)	GI50 (SF-268 CNS)	GI50 (NCI-H23 lung)	GI50 (DU-145 prostate)
N#Cc1c(/C=C/c2ccccc2)c2c([nH]c1=S)CCCCC2	> 100 µM	> 100 µM	> 100 µM	> 100 µM	> 100 µM	> 100 µM	> 100 µM	> 100 µM	> 100 µM	> 100 µM	–	–	–	–
N#Cc1sc2c(c1OC(=O)c1ccco1)c(=O)n(-c1ccccc1)c(=S)n2-c1ccccc1	64.4 µM	> 100 µM	> 100 µM	> 100 µM	> 100 µM	81.2 µM	> 100 µM	> 100 µM	> 100 µM	> 100 µM	–	–	–	–
Cc1cc2nc3c(C#N)c(C)c(CCCl)c(Cl)n3c2cc1C	> 100 µM	5.79 µM	3.76 µM	5.29 µM	13.6 µM	16.6 µM	5.91 µM	8.17 µM	8.64 µM	4.64 µM	–	–	–	–
COC1(OC)CC(CO)(COc2cc(Cl)nc(N)n2)C1	> 100 µM	> 100 µM	> 100 µM	> 100 µM	> 100 µM	> 100 µM	> 100 µM	> 100 µM	> 100 µM	> 100 µM	–	–	–	–
O=C(CSc1nc2ccc(I)cc2c(=O)n1Cc1ccccc1)Nc1ccccc1	90.6 µM	> 100 µM	29.2 µM	> 100 µM	> 100 µM	> 100 µM	> 100 µM	44.5 µM	> 100 µM	26.7 µM	–	–	–	–
C=C1c2c(n(S(=O)(=O)c3ccccc3)c3ccccc23)[C@@]2(C(=O)OC)CC3C=CC2N1C3	> 100 µM	> 100 µM	> 100 µM	> 100 µM	> 100 µM	> 100 µM	> 100 µM	> 100 µM	> 100 µM	> 100 µM	–	–	–	–
NC(=Nc1ccccc1)N/N=C/c1c[nH]c2ccccc12	0.306 µM	5.02 µM	15 µM	2.93 µM	2.59 µM	15 µM	1.54 µM	16.1 µM	15 µM	9.47 µM	–	–	–	–
O=[N+]([O-])c1c(O)c2nonc2c2nn(-c3ccccc3)nc12	> 100 µM	> 100 µM	> 100 µM	> 100 µM	> 100 µM	> 100 µM	> 100 µM	79.1 µM	> 100 µM	> 100 µM	–	–	–	–
COC(=O)NC(Cc1ccccc1)NC(=O)OC(C)(C)C (stereo not given)	> 100 µM	> 100 µM	> 100 µM	> 100 µM	> 100 µM	> 100 µM	> 100 µM	> 100 µM	> 100 µM	> 100 µM	–	–	–	–
COC(=O)N[C@@H]1C[C@H]2CC[C@]1(O[Si](C(C)C)(C(C)C)C(C)C)C(=O)C2	24 µM	> 100 µM	28.6 µM	39.3 µM	> 100 µM	33.8 µM	47.8 µM	33 µM	> 100 µM	46.4 µM	–	–	–	–
CC(=O)NC1C(OCc2ccccc2)OC(CO)C(O)C1OC(C)C(=O)NC(C(=O)NC(CCC(=O)NCCCNc1ccc([N+](=O)[O-])c2[nH]c3ccccc3c(=O)c12)C(N)=O)C(C)C (stereo not given)	> 100 µM	> 100 µM	> 100 µM	> 100 µM	> 100 µM	> 100 µM	> 100 µM	> 100 µM	> 100 µM	> 100 µM	–	–	–	–
CC1(C)C2CC3C(C)(C2)C31c1cc(Cl)ccc1N (stereo not given)	19.7 µM	28.2 µM	28.3 µM	26 µM	27 µM	28.6 µM	27.6 µM	34.6 µM	26.7 µM	29.4 µM	–	–	–	–
CCn1c(CCCc2nc3c([nH]2)c(=O)n(C)c(=O)n3C)nc2c1c(=O)n(C)c(=O)n2C	> 100 µM	> 100 µM	> 100 µM	> 100 µM	> 100 µM	> 100 µM	> 100 µM	30.6 µM	> 100 µM	> 100 µM	–	–	–	–
CC1(C)CCCCCC(O)C(O)CCC(C)(C)C1=O (stereo not given)	> 100 µM	> 100 µM	> 100 µM	> 100 µM	> 100 µM	> 100 µM	> 100 µM	> 100 µM	> 100 µM	> 100 µM	–	–	–	–
COc1ccc(NC(=O)CSC(=O)c2ccccc2)c(SCCSSCCSc2cc(OC)ccc2NC(=O)CSC(=O)c2ccccc2)c1	> 100 µM	> 100 µM	> 100 µM	> 100 µM	> 100 µM	83.7 µM	> 100 µM	> 100 µM	> 100 µM	> 100 µM	–	–	–	–
CC(=O)C(CN1C(=O)c2ccccc2C1=O)C(C)=O	> 100 µM	> 100 µM	> 100 µM	> 100 µM	> 100 µM	> 100 µM	> 100 µM	> 100 µM	> 100 µM	> 100 µM	–	–	–	–
CCCCCCCCCCCC(=O)N(CCCCCCCCC)CC(O)C(O)C(OC1OC(CO)C(O)C(O)C1O)C(O)CO (stereo not given)	44.1 µM	35.1 µM	39.3 µM	35.3 µM	33.8 µM	49.6 µM	34.4 µM	37.8 µM	> 100 µM	38.9 µM	–	–	–	–
COc1cc2nc(-c3cccs3)nc(Nc3ccccc3C(=O)NN)c2cc1OC	> 100 µM	> 100 µM	> 100 µM	> 100 µM	> 100 µM	> 100 µM	> 100 µM	> 100 µM	> 100 µM	> 100 µM	–	–	–	–

SMILES	TGI (NCI-H522 lung)	TGI (SW-620 colon)	TGI (SF-268 CNS)	TGI (NCI-H23 lung)	TGI (DU-145 prostate)	TGI (OVCAR-4 ovarian)	TGI (HT29 colon)	TGI (NCI-H226 lung)	TGI (MCF7 breast)	TGI (HOP-62 NSCLC)	GI50 (NCI-H522 lung)	GI50 (SF-268 CNS)	GI50 (NCI-H23 lung)	GI50 (DU-145 prostate)
O=C(O)c1cc(NCc2cc(O)ccc2O)ccc1O	40.7 µM	50.6 µM	> 100 µM	> 100 µM	> 100 µM	> 100 µM	> 100 µM	> 100 µM	> 100 µM	> 100 µM	–	–	–	–
CCOP(=O)(OCC)/C(=C/n1c(=S)[nH]c2ccccc21)C(=O)OC	> 100 µM	> 100 µM	> 100 µM	> 100 µM	> 100 µM	> 100 µM	> 100 µM	> 100 µM	> 100 µM	> 100 µM	–	–	–	–
O=C(O)C(Cc1ccccc1)Cc1ccccc1	> 100 µM	> 100 µM	> 100 µM	> 100 µM	> 100 µM	> 100 µM	> 100 µM	> 100 µM	> 100 µM	> 100 µM	–	–	–	–
COC(=O)C1=C(C)NC(C)=C(C(=O)OC)C1c1cccc(/[N+]([O-])=C/c2ccccc2)c1	30.2 µM	38 µM	> 100 µM	> 100 µM	> 100 µM	30.2 µM	87.4 µM	> 100 µM	34.3 µM	> 100 µM	–	–	–	–
OC(CCN1CCN(CCOC(c2ccccc2)c2ccccc2)CC1)c1ccccc1 (stereo not given)	32.7 µM	> 100 µM	57 µM	63.1 µM	> 100 µM	> 100 µM	33.5 µM	88.2 µM	47.4 µM	44.3 µM	–	–	–	–
O/N=C1\C/C(=N\O)c2c(Br)sc(Br)c21	32.6 µM	72.7 µM	96.5 µM	59.3 µM	> 100 µM	> 100 µM	> 100 µM	> 100 µM	> 100 µM	> 100 µM	–	–	–	–
N#Cc1ccc(-c2ccc(Cl)cc2)n(C2OC(CO)C(O)C(O)C2O)c1=S (stereo not given)	> 100 µM	> 100 µM	> 100 µM	> 100 µM	> 100 µM	> 100 µM	> 100 µM	> 100 µM	> 100 µM	> 100 µM and 36.3 µM	> 100 µM and 15.5 µM	> 100 µM and 39.6 µM	> 100 µM and 31.8 µM	–
COc1cc(C(c2ccccc2)N2C(=O)CC[C@H]2C(=O)O)cc(OC)c1OC (stereo not given in full)	> 100 µM	> 100 µM	> 100 µM	> 100 µM	> 100 µM	> 100 µM	> 100 µM	> 100 µM	> 100 µM	> 100 µM	–	–	–	–
N=C(N)SCc1nc(-c2ccc(Cl)cc2)no1	25.1 µM	37.2 µM	> 100 µM	> 100 µM	63 µM	29.1 µM	29.3 µM	> 100 µM	30.1 µM	> 100 µM	–	–	–	–
O=C1C(c2ccccc2)=C(c2ccccc2)C1(Cl)Cl	4.51 µM	9.77 µM	12.7 µM	7.72 µM	24.5 µM	11.4 µM	13.6 µM	10.1 µM	9.92 µM	41.9 µM	–	–	–	–
N=C1C=CC(=C(c2ccc(N)cc2)c2ccc(N)cc2)C=C1	12.8 µM	19.2 µM	14.9 µM	16.3 µM	17.7 µM	52.4 µM	14.3 µM	18.2 µM	13.2 µM	16.8 µM	–	–	–	–
Clc1nc2nc(N3CCNCC3)nc(N3CCCC3)c2[nH]1	33.7 µM	45.4 µM	40.4 µM	32 µM	30.9 µM	35 µM	34.2 µM	> 100 µM	32.2 µM	36.2 µM	–	–	–	–
Cc1cnc2c(c1)C(=O)N(c1ccc(Oc3ccccc3)cc1)S2(=O)=O	> 100 µM	> 100 µM	> 100 µM	> 100 µM	> 100 µM	> 100 µM	> 100 µM	> 100 µM	> 100 µM	> 100 µM	–	–	–	–
N#CCCN(CCCCN(CCC#N)C(=O)Nc1ccccc1)C(=O)Nc1ccccc1	> 100 µM	> 100 µM	> 100 µM	> 100 µM	> 100 µM	> 100 µM	> 100 µM	> 100 µM	> 100 µM	> 100 µM	–	–	–	–
CCC[N+](C)(C)CCCNC(=O)c1c(O)c2ccccc2[nH]c1=O	> 100 µM	> 100 µM	> 100 µM	> 100 µM	> 100 µM	> 100 µM	> 100 µM	> 100 µM	> 100 µM	> 100 µM	–	–	–	–
CC1(C)CCC2=C(O1)c1ccccc1C(=Nc1ccc([N+](=O)[O-])cc1)C2=O	30.1 µM	29.6 µM	> 100 µM	52.9 µM	30.4 µM	38.7 µM	25.2 µM	25.3 µM	27.7 µM	34.1 µM	–	–	18.3 µM	16.8 µM
CC(C)OC1=C(CC2(C)OCCO2)C(=O)C12OCCO2	> 100 µM	> 100 µM	> 100 µM	> 100 µM	> 100 µM	> 100 µM	> 100 µM	> 100 µM	> 100 µM	> 100 µM	–	–	–	–
O=c1oc2ccccc2c(O)c1C(c1ccc(OCc2ccccc2)cc1)c1c(O)c2ccccc2oc1=O	> 100 µM	> 100 µM	> 100 µM	> 100 µM	> 100 µM	> 100 µM	> 100 µM	> 100 µM	> 100 µM	> 100 µM	–	–	–	–
